Data from US8362065B2, “Carbazole carboxamide compounds useful as kinase inhibitors” (Bristol-Myers Squibb Company, priority 2008, dated 2013).

Target: T1, human recombinant Btk (Homo sapiens, UniProt Q06187)
T1 construct: purchased Invitrogen Corporation
Assay: Human Recombinant Btk Enzyme Assay
Assay type: biochemical
Settings: human recombinant Btk 1 nM, ATP 20 μM, 60 min at room temperature; read-out: IC50 for Inhibition of Btk

T1 sequence (Q06187 whole entry): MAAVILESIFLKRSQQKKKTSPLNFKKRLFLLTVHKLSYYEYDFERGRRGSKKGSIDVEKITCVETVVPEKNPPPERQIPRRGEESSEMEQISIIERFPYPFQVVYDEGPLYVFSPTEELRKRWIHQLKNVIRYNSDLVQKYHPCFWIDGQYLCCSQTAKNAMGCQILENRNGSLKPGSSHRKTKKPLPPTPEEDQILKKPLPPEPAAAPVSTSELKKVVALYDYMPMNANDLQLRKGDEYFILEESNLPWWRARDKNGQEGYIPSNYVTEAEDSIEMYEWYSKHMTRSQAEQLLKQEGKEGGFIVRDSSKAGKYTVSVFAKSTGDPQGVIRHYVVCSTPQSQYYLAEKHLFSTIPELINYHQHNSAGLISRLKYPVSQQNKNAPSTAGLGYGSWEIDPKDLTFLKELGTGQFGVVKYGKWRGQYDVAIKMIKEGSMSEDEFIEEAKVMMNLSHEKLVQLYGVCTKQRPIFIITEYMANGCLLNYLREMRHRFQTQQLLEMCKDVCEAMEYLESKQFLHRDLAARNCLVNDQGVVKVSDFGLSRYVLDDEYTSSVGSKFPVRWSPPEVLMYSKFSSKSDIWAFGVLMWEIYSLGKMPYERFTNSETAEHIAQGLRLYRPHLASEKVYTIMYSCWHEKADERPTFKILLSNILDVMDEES

IC50 [nM]	SMILES
1.4	Cc1ccc2c(c1)C(=O)N(c1cccc(-c3ccc(C(N)=O)c4[nH]c5cc(C(O)CO)ccc5c34)c1C)C2 (centres unmarked) [Example 70-11, 7-(1,2-dihydroxyethyl)-4-(2-methyl-3-(6-methyl-1-oxoisoindolin-2-yl)phenyl)-9H-carbazole-1-carboxamide]
540	CC(C)(O)C1CCc2c([nH]c3c(C(N)=O)ccc(Br)c23)C1 (centres unmarked) [Example 73-1, 5-bromo-2-(2-hydroxypropan-2-yl)-2,3,4,9-tetrahydro-1H-carbazole-8-carboxamide]
1.3	Cc1c(-c2ccc(C(N)=O)c3[nH]c4cc(C(C)(C)O)ccc4c23)cccc1-n1ccn2ccnc2c1=O [Example 76-2, 7-(2-hydroxypropan-2-yl)-4-(2-methyl-3-(8-oxoimidazo[1,2-a]pyrazin-7(8 H)-yl)phenyl)-9H-carbazole-1-carboxamide]
18	Cc1c(-c2ccc(C(N)=O)c3[nH]c4c(c23)CCC(C(C)(C)O)C4)cccc1-n1c(C)nc2ccccc2c1=O (centres unmarked) [Example 76-10, 2-(2-hydroxypropan-2-yl)-5-(2-methyl-3-(2-methyl-4-oxoquinazolin-3(4H)-yl)phenyl)-2,3,4,9-tetrahydro-1H-carbazole-8-carboxamide]
1.8	Cc1c(-c2ccc(C(N)=O)c3[nH]c4cc(C(C)(C)O)ccc4c23)cccc1N1Cc2ccncc2C1=O [Example 76-18]
18	Cc1c(-c2ccc(C(N)=O)c3[nH]c4c(c23)CCC(C(C)(C)O)C4)cccc1-n1cnc2cccc(F)c2c1=O (centres unmarked) [Example 76-41]
18	Cc1c(-c2ccc(C(N)=O)c3[nH]c4c(c23)CCC(C(C)(C)O)C4)cccc1N1Cc2ccc(C(F)(F)F)cc2C1=O (centres unmarked) [Example 76-44]
1.9	Cc1c(NC(=O)c2nccs2)cccc1-c1ccc(C(N)=O)c2[nH]c3cc(N4CCN(C)CC4)ccc3c12 [Example 77-2, N-(3-(1-carbamoyl-7-(4-methylpiperazin-1-yl)-9H-carbazol-4-yl)-2-methylphenyl)thiazole-2-carboxamide]
1.6	Cc1c(NC(=O)c2nccn2C)cccc1-c1ccc(C(N)=O)c2[nH]c3cc(C(O)CO)ccc3c12 (centres unmarked) [Example 78-2]
16.9	Cc1ccc2c(Nc3cccc(-c4ccc(C(N)=O)c5[nH]c6cc(N7CCCC7=O)ccc6c45)c3C)ncnc2c1 [Example 79-2]
15	Cc1c(Nc2ncnc3ccc(F)cc23)cccc1-c1ccc(C(N)=O)c2[nH]c3cc(N4CCCC4=O)ccc3c12 [Example 79-3]
16	Cc1c(Nc2ncnc3cc(F)ccc23)cccc1-c1ccc(C(N)=O)c2[nH]c3cc(N4CCCC4=O)ccc3c12 [Example 79-4]
1.9	Cc1c(-c2ccc(C(N)=O)c3[nH]c4cc(NC(C)C)ccc4c23)cccc1-n1ccn2ccnc2c1=O [Example 80-1, 7-(isopropylamino)-4-(2-methyl-3-(8-oxoimidazo[1,2-a]pyrazin-7(8H)-yl)phenyl)-9H-carbazole-1-carboxamide]
1.9	Cc1c(-c2ccc(C(N)=O)c3[nH]c4cc(C(C)(C)O)ccc4c23)cccc1-n1ccn2c(C)cnc2c1=O [Example 81-3]
2.2	Cc1c(-c2ccc(C(N)=O)c3[nH]c4cc(C(C)(C)O)ccc4c23)cccc1N1CCc2cc(F)ccc2C1=O [Example 81-20]

Further lines, the molecule ahead of its results:

SMILES	IC50 [nM]
CC(=O)OCC1CCc2c([nH]c3c(C(N)=O)ccc(-c4cccc(N5C(=O)c6ccc(C(C)(C)C)cc6C5=O)c4C)c23)C1 (centres unmarked) [Example 31-3, (5-(3-(5-tert-butyl-1,3-dioxoisoindolin-2-yl)-2-methylphenyl)-8-carbamoyl-2,3,4,9-tetrahydro-1H-carbazol-2-yl)mEtOAc]	1500
Cc1c(-c2ccc(C(N)=O)c3[nH]c4cc(CN)ccc4c23)cccc1N1Cc2ccccc2C1=O [Example 33-1, 7-(aminomethyl)-4-(2-methyl-3-(1-oxoisoindolin-2-yl)phenyl)-9H-carbazole-1-carboxamide]	1.9
Cc1c(-c2ccc(C(N)=O)c3[nH]c4cc(CNC(=O)CO)ccc4c23)cccc1N1Cc2ccccc2C1=O [Example 34-2, 7-((2-hydroxyacetamido)methyl)-4-(2-methyl-3-(1-oxoisoindolin-2-yl)phenyl)-9H-carbazole-1-carboxamide]	2
CC(=O)NCc1ccc2c(c1)[nH]c1c(C(N)=O)ccc(-c3cccc(N4Cc5ccc(F)cc5C4=O)c3C)c12 [Example 38-2, 7-(acetamidomethyl)-4-(3-(6-fluoro-1-oxoisoindolin-2-yl)-2-methylphenyl)-9H-carbazole-1-carboxamide]	2.1
Cc1c(NC(=O)c2ccc(F)cc2)cccc1-c1ccc(C(N)=O)c2[nH]c3cc(CN4CCCC4)ccc3c12 [Example 39-4]	1.7
Cc1c(-c2ccc(C(N)=O)c3[nH]c4cc(O)ccc4c23)cccc1N1Cc2ccccc2C1=O [Example 41-1, 7-hydroxy-4-(2-methyl-3-(1-oxoisoindolin-2-yl)phenyl)-9H-carbazole-1-carboxamide]	16
NC(=O)c1ccc(-c2ccccc2F)c2c3c([nH]c12)CCC(Oc1ccccc1)C3 (centres unmarked) [Example 47-2, 5-(2-fluorophenyl)-3-phenoxy-2,3,4,9-tetrahydro-1H-carbazole-8-carboxamide]	4200
NC(=O)c1ccc(-c2ccccc2F)c2c1[nH]c1ccc(Oc3ccccc3)cc12 [Example 48-2]	1700
NC(=O)c1ccc(Br)c2c1[nH]c1cc(NC(=O)OCc3ccccc3)ccc12 [Example 50-3, benzyl 5-bromo-8-carbamoyl-9H-carbazol-2-ylcarbamate]	1300
Cc1c(N)cccc1-c1ccc(C(N)=O)c2[nH]c3c(c12)CCC(NC(=O)OCc1ccccc1)C3 (centres unmarked) [Example 51-1, benzyl 5-(3-amino-2-methylphenyl)-8-carbamoyl-2,3,4,9-tetrahydro-1H-carbazol-2-ylcarbamate]	400
Cc1c(-c2ccc(C(N)=O)c3[nH]c4cc(NC(=O)OCc5ccccc5)ccc4c23)cccc1N1Cc2cc(C(C)(C)C)ccc2C1=O [Example 51-4, benzyl 5-(3-(5-tert-butyl-1-oxoisoindolin-2-yl)-2-methylphenyl)-8-carbamoyl-9H-carbazol-2-ylcarbamate]	1600
Cc1c(NC(=O)c2ccc(F)cn2)cccc1-c1ccc(C(N)=O)c2[nH]c3cc(NC(=O)OCc4ccccc4)ccc3c12 [Example 52-1, benzyl 8-carbamoyl-5-(3-(5-fluoropicolinamido)-2-methylphenyl)-9H-carbazol-2-ylcarbamate]	520
Cc1c(NC(=O)c2ccccn2)cccc1-c1ccc(C(N)=O)c2[nH]c3c(c12)CCC(NC(=O)OCc1ccccc1)C3 (centres unmarked) [Example 52-2, benzyl 8-carbamoyl-5-(2-methyl-3-(picolinamido)phenyl)-2,3,4,9-tetrahydro-1H-carbazol-2-ylcarbamate]	520
Cc1c(NC(=O)c2ccc(F)cc2)cccc1-c1ccc(C(N)=O)c2[nH]c3cc(N(Cc4ccccc4)Cc4ccccc4)ccc3c12 [Example 54-7, 7-(dibenzylamino)-4-(3-(4-fluorobenzamido)-2-methylphenyl)-9H-carbazole-1-carboxamide]	830
Cc1c(NC(=O)c2ccc(F)cc2)cccc1-c1ccc(C(N)=O)c2[nH]c3cc(NC(=O)[C@H](C)N)ccc3c12 [Example 57-3, 7-((S)-2-aminopropanamido)-4-(3-(4-fluorobenzamido)-2-methylphenyl)-9H-carbazole-1-carboxamide]	2.1
Cc1c(NC(=O)c2ccc(F)cc2)cccc1-c1ccc(C(N)=O)c2[nH]c3cc(NC(=O)Cc4ccncc4)ccc3c12 [Example 57-13]	15
Cc1c(NC(=O)c2ccc(F)cc2)cccc1-c1ccc(C(N)=O)c2[nH]c3cc(NC(=O)CCCN4CCOCC4)ccc3c12 [Example 57-16]	2.1
Cc1c(NC(=O)c2ccc(F)cc2)cccc1-c1ccc(C(N)=O)c2[nH]c3cc(NC(=O)CCN4CCOCC4)ccc3c12 [Example 57-18]	2.2
Cc1c(NC(=O)c2ccc(F)cc2)cccc1-c1ccc(C(N)=O)c2[nH]c3cc(NC(=O)c4ccc(C#N)cc4)ccc3c12 [Example 57-20]	15
Cc1c(NC(=O)c2ccc(F)cc2)cccc1-c1ccc(C(N)=O)c2[nH]c3cc(NC(=O)CN)ccc3c12 [Example 57-37]	1.8
Cc1c(NC(=O)c2nccn2C)cccc1-c1ccc(C(N)=O)c2[nH]c3cc(NC(=O)NC(C)C)ccc3c12 [Example 60-1, 7-(3-isopropylureido)-4-(2-methyl-3-(1-methyl-1H-imidazole-2-carboxamido)phenyl)-9H-carbazole-1-carboxamide]	18
Cc1c(NC(=O)c2ccc(F)cc2)cccc1-c1ccc(C(N)=O)c2[nH]c3cc(NC4CCN(C)CC4)ccc3c12 [Example 61-2]	2.2
Cc1ccc2c(c1)CN(c1cncc(-c3ccc(C(N)=O)c4[nH]c5cc(NC(C)C)ccc5c34)c1C)C2=O [Example 66-2, 7-(isopropylamino)-4-(4-methyl-5-(5-methyl-1-oxoisoindolin-2-yl)pyridin-3-yl)-9H-carbazole-1-carboxamide]	16
Cc1ccc2c(c1)C(=O)N(c1cccc(-c3ccc(C(N)=O)c4[nH]c5cc(N6CCCC6=O)ccc5c34)c1C)C2 [Example 66-16]	2
Cc1c(-c2ccc(C(N)=O)c3[nH]c4cc(NC(=O)C(C)(C)C)ccc4c23)cccc1N1Cc2cc(F)ccc2C1=O [Example 66-34]	16
Cc1ccc2c(c1)C(=O)N(c1cccc(-c3ccc(C(N)=O)c4[nH]c5cc(N6CCC(C)(C)C6=O)ccc5c34)c1C)C2 [Example 66-37]	15
Cc1c(-c2ccc(C(N)=O)c3[nH]c4cc(NCC(O)CO)ccc4c23)cccc1N1Cc2ccccc2C1=O (centres unmarked) [Example 67-1, 7-(2,3-dihydroxypropylamino)-4-(2-methyl-3-(1-oxoisoindolin-2-yl)phenyl)-9H-carbazole-1-carboxamide]	2.2
Cc1c(-c2ccc(C(N)=O)c3[nH]c4cc(C(O)CO)ccc4c23)cccc1N1Cc2ccc(F)cc2C1=O (centres unmarked) [Example 70-9]	1.5
Cc1c(-c2ccc(C(N)=O)c3[nH]c4cc(C(O)CO)ccc4c23)cccc1N1Cc2ccc(F)cc2C1=O (centres unmarked) [Example 70-10]	1
